# Source: patent US9682965B2, “Fumagillol heterocyclic compounds and methods of making and using same” (Zafgen, Inc., priority 2015, dated 2017)
# Structures can show the parent of a compound that is named as a salt.
# Legend:
# [1] = system: Male Sprague Dawley rats on high fat diet; assay: 11 day rat DIO model (body weight, food intake, hematology, blood chemistries); format: in vivo; conditions: 264 h, DIO rat, once a day for 11 days, read-out: DIO Rat 11-day weight loss vs vehicle; for inhibition in vivo at 0.3 mg/kg: 0.3 mpk sc
# From the text: The objective of this study design is to investigate the efficacy of disclosed compounds in an 11 day rat DIO model used to screen compounds for pharmacologic efficacy on endpoints related to obesity and metabolism. Effects on body weight, food intake, hematology and blood chemistries were the primary readouts of this study design. […] Rats were fed Research Diets D12451 (45% High Fat) and provided water ad libitum. Rats were received and housed in the facility for at least two or three weeks prior to start of test article administration. On Day −4 or −3, rats were randomized into study groups based on body weight and body weights were continued to be recorded daily for the duration of the study. Daily food intake was assessed starting on Study Day −2 by weighing the hopper including the food to avoid loss of food in transfer.
# (§1) Compounds were formulated into a 100% DMSO stock (at 9 mg/mL) prior to the start, and further diluted into the target working concentration using the vehicle of 10% DMSO in water. Prior to test article administration, starting on Day −3 a dosing acclimation occured with all animals receiving a subcutaneous injection of vehicle (10% DMSO) only for 3 days. Starting on Day 1, test compounds or vehicle were administered based on individual body weight, subcutaneously, once a day for 11 days. All animals were sacrificed on Day 11, approximately 2 hours following the final dosing on Day 11. After sacrifice, whole blood was collected and analyzed for hematology and blood chemistry parameters.
# (§2) Compounds were tested vs. vehicle at various doses (1.0, 0.5, 0.3, 0.1, 0.03 mpk sc (mg per kg animal weight delivered subcutaneously), and the results are shown in Table 2 below.
# [2] = system: Diet Induced Obese (DIO) C57BL/6 mice; assay: 10 day DIO mouse model (body weight, food intake, hematology, blood chemistry); format: in vivo; conditions: 240 h; DIO mouse, 0.3 mpk sc, once a day for 10 days; read-out: DIO Mouse 10-day weight loss vs vehicle
# From the text: The objective of this study design was to investigate the efficacy of disclosed compounds in a 10 day DIO mouse model. Effects on body weight, food intake, hematology and blood chemistry were the primary readouts of this study design. […] Mice were fed Research Diets D12492 (60% Kcal fat, 20% Kcal carbohydrate and 20% protein) and provided water ad libitum. DIO mice were received and housed in the facility for approximately two weeks prior to the start of test article administration. On Day −4 or −3, mice were randomized into study groups based on body weight and body weights were continued to be recorded daily for the duration of the study. Daily food intake was assessed starting on Study Day −2 by weighing of the food with hopper together to avoid loss of food in transfer.
# as §1, with “for 10” for “for 11”, “All mice” for “All animals”, “11, 24” for “11, approximately 2”, “Day 10.” for “Day 11.”
# as §2
SMILES,inhibition in vivo at 0.3 mg/kg [1],inhibition in vivo at 0.3 mg/kg [2],inhibition in vivo at 1 mg/kg ([1]; 1.0 mpk sc)
"CO[C@@H]1[C@H](OC(=O)N2CC(Nc3ccccn3)C2)CC[C@]2(CO2)[C@H]1[C@@]1(C)O[C@@H]1CC=C(C)C [Example 98, (3R,4S,5S,6R)-5-methoxy-4-((2R,3R)-2-methyl-3-(3-methylbut-2-enyl)oxiran-2-yl)-1-oxaspiro[2.5]octan-6-yl 3-(pyridin-2-ylamino)azetidine-1-carboxylate]",1.2%,12.6%,–
"CO[C@@H]1[C@H](OC(=O)N2CCC(CCN3CC(F)(F)C3)C2)CC[C@]2(CO2)[C@H]1[C@@]1(C)O[C@@H]1CC=C(C)C (stereo in doubt) [Example 57, (R)-(3R,4S,5S,6R)-5-methoxy-4-((2R,3R)-2-methyl-3-(3-methylbut-2-en-1-yl)oxiran-2-yl)-1-oxaspiro[2.5]octan-6-yl 3-(2-(3,3-difluoroazetidin-1-yl)ethyl)pyrrolidine-1-carboxylate]",5.3%,17.4%,–
"CO[C@@H]1[C@H](OC(=O)N2CC(CCN3CC(F)(F)C3)C2)CC[C@]2(CO2)[C@H]1[C@@]1(C)O[C@@H]1CCC(C)C [Example 126, (3R,4S,5S,6R)-4-((2R,3R)-3-isopentyl-2-methyloxiran-2-yl)-5-methoxy-1-oxaspiro[2.5]octan-6-yl3-(2-(3,3-difluoroazetidin-1-yl)ethyl)azetidine-1-carboxylate]",7.4%,13.2%,9.1%
"CO[C@@H]1[C@H](OC(=O)N2CC[C@@H](CN3CCOCC3)C2)CC[C@]2(CO2)[C@H]1[C@@]1(C)O[C@@H]1CC=C(C)C [Example 37, (S)-(3R,4S,5S,6R)-5-methoxy-4-((2R,3R)-2-methyl-3-(3-methylbut-2-en-1-yl)oxiran-2-yl)-1-oxaspiro[2.5]octan-6-yl 3-(morpholinomethyl)pyrrolidine-1-carboxylate formate]",5.3%,11.1%,–
"CO[C@@H]1[C@H](OC(=O)N2CC(Cc3ccccn3)C2)CC[C@]2(CO2)[C@H]1[C@@]1(C)O[C@@H]1CC=C(C)C [Example 100, (3R,4S,5S,6R)-5-methoxy-4-((2R,3R)-2-methyl-3-(3-methylbut-2-en-1-yl)oxiran-2-yl)-1-oxaspiro[2.5]octan-6-yl 3-(pyridin-2-ylmethyl)azetidine-1-carboxylate]",5.5%,9.8%,–
"CO[C@@H]1[C@H](OC(=O)N2CC(CCn3cccn3)C2)CC[C@]2(CO2)[C@H]1[C@@]1(C)O[C@@H]1CC=C(C)C [Example 17, (3R,4S,5S,6R)-5-methoxy-4-((2R,3R)-2-methyl-3-(3-methylbut-2-enyl)oxiran-2-yl)-1-oxaspiro[2.5]octan-6-yl 3-(2-(1H-pyrazol-1-yl)ethyl)azetidine-1-carboxylate]",5.1%,12.6%,–
"CO[C@@H]1[C@H](OC(=O)N2CC(=CCN3CCOCC3)C2)CC[C@]2(CO2)[C@H]1[C@@]1(C)O[C@@H]1CC=C(C)C [Example 96, (3R,4S,5S,6R)-5-methoxy-4-((2R,3R)-2-methyl-3-(3-methylbut-2-enyl)oxiran-2-yl)-1-oxaspiro[2.5]octan-6-yl 3-(2-morpholinoethylidene)azetidine-1-carboxylate]",–,18.6%,–
"CO[C@@H]1[C@H](OC(=O)N2CC(CCN3CCOCC3=O)C2)CC[C@]2(CO2)[C@H]1[C@@]1(C)O[C@@H]1CC=C(C)C [Example 39, (3R,4S,5S,6R)-5-methoxy-4-((2R,3R)-2-methyl-3-(3-methylbut-2-enyl)oxiran-2-yl)-1-oxaspiro[2.5]octan-6-yl 3-(2-(3-oxomorpholino)ethyl)azetidine-1-carboxylate]",–,1.7%,–
"CCN(CC)CC[C@@H]1CCCN1C(=O)O[C@@H]1CC[C@]2(CO2)[C@@H]([C@@]2(C)O[C@@H]2CC=C(C)C)[C@@H]1OC [Example 51, (S)-((3R,4S,5S,6R)-5-methoxy-4-((2R,3R)-2-methyl-3-(3-methylbut-2-enyl)oxiran-2-yl)-1-oxaspiro[2.5]octan-6-yl) 2-(2-(diethylamino)ethyl)pyrrolidine-1-carboxylate formate]",–,4.3%,–
"CO[C@@H]1[C@H](OC(=O)N2CC(CC3CCN(CC(F)F)CC3)C2)CC[C@]2(CO2)[C@H]1[C@@]1(C)O[C@@H]1CC=C(C)C [Example 94, (3R,4S,5S,6R)-5-methoxy-4-((2R,3R)-2-methyl-3-(3-methylbut-2-enyl)oxiran-2-yl)-1-oxaspiro[2.5]octan-6-yl 3-((1-(2,2-difluoroethyl)piperidin-4-yl)methyl)azetidine-1-carboxylate]",–,22.5%,–
"CO[C@@H]1[C@H](OC(=O)N2CC(OC(=O)N3CCS(=O)(=O)CC3)C2)CC[C@]2(CO2)[C@H]1[C@@]1(C)O[C@@H]1CC=C(C)C [Example 79, 1-(((3R,4S,5S,6R)-5-methoxy-4-((2R,3R)-2-methyl-3-(3-methylbut-2-enyl)oxiran-2-yl)-1-oxaspiro[2.5]octan-6-yloxy)carbonyl)azetidin-3-yl thiomorpholine 2,2-dioxide-4-carboxylate formate]",–,0.1%,–
"CO[C@@H]1[C@H](OC(=O)N2CC(CCN3CC[C@@H](O)C3)C2)CC[C@]2(CO2)[C@H]1[C@@]1(C)O[C@@H]1CC=C(C)C [Example 47, (3R,4S,5S,6R)-5-methoxy-4-((2R,3R)-2-methyl-3-(3-methylbut-2-enyl)oxiran-2-yl)-1-oxaspiro[2.5]octan-6-yl 3-(2-((R)-3-hydroxypyrrolidin-1-yl)ethyl)azetidine-1-carboxylate]",–,5.6%,–
"CO[C@@H]1[C@H](OC(=O)N2CC[C@@H]2CN2CCCC2)CC[C@]2(CO2)[C@H]1[C@@]1(C)O[C@@H]1CC=C(C)C [Example 42, (R)-((3R,4S,5S,6R)-5-methoxy-4-((2R,3R)-2-methyl-3-(3-methylbut-2-enyl)oxiran-2-yl)-1-oxaspiro[2.5]octan-6-yl) 2-(pyrrolidin-1-ylmethyl)azetidine-1-carboxylate formate]",–,5.3%,–
"CO[C@@H]1[C@H](OC(=O)N2CC(CCN3CC[C@H](F)C3)C2)CC[C@]2(CO2)[C@H]1[C@@]1(C)O[C@@H]1CC=C(C)C [Example 28, (3R,4S,5S,6R)-5-methoxy-4-((2R,3R)-2-methyl-3-(3-methylbut-2-enyl)oxiran-2-yl)-1-oxaspiro[2.5]octan-6-yl 3-(2-((S)-3-fluoropyrrolidin-1-yl)ethyl)azetidine-1-carboxylate]",–,12.7%,–
"CO[C@@H]1[C@H](OC(=O)N2CC(CCN3CCC(C#N)(C#N)CC3)C2)CC[C@]2(CO2)[C@H]1[C@@]1(C)O[C@@H]1CC=C(C)C [Example 36, (3R,4S,5S,6R)-5-methoxy-4-((2R,3R)-2-methyl-3-(3-methylbut-2-enyl)oxiran-2-yl)-1-oxaspiro[2.5]octan-6-yl 3-(2-(4,4-dicyanopiperidin-1-yl)ethyl)azetidine-1-carboxylate]",–,11.2%,–
"CCN(CC)CC1CN(C(=O)O[C@@H]2CC[C@]3(CO3)[C@@H]([C@@]3(C)O[C@@H]3CC=C(C)C)[C@@H]2OC)CCO1 (stereo partly drawn) [Example 44, (3R,4S,5S,6R)-5-methoxy-4-((2R,3R)-2-methyl-3-(3-methylbut-2-enyl)oxiran-2-yl)-1-oxaspiro[2.5]octan-6-yl 2-((diethylamino)methyl)morpholine-4-carboxylate formate]",–,2.1%,–
